For orientation: IC50 means the point on the concentration scale where inhibition reaches its midpoint. Read a high IC50 as weaker potency in that assay.

For experiment [1], the target named is T1, TNKS2 (Homo sapiens, UniProt Q9H2K2).
T1 sequence (Q9H2K2 1-1166): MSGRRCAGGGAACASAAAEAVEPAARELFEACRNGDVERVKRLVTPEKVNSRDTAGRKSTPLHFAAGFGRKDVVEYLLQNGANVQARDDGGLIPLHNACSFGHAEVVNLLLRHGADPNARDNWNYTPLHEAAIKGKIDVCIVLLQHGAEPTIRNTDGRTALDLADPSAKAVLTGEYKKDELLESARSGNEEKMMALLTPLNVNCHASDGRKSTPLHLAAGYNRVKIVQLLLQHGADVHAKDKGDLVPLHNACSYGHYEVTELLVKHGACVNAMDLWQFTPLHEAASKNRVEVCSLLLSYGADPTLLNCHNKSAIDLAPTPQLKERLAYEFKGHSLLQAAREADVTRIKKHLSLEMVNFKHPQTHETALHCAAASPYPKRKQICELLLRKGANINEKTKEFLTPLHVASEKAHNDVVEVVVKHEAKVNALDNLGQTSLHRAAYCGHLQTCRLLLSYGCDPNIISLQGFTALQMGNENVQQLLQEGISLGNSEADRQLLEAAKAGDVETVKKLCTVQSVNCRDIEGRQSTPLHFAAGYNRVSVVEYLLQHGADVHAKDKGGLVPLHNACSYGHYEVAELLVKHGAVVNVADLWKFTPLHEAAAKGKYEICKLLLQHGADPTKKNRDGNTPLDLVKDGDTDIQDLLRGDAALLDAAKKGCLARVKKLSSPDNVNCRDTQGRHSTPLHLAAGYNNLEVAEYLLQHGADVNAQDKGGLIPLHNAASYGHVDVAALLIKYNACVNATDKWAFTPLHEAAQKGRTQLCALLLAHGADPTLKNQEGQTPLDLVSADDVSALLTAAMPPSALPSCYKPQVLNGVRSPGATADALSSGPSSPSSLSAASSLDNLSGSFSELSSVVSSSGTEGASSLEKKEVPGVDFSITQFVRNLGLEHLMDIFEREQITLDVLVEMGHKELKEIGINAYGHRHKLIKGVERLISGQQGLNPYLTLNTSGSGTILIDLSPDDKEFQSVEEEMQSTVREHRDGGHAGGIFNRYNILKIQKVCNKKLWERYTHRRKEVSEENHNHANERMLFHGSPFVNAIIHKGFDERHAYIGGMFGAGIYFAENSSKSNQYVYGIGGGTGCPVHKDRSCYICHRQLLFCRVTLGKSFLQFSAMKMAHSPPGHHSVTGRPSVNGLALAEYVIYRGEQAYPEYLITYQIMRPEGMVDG
Kind of experiment: Modified TNKS2 Assay 3 (BPS kit #80578, biotin-NAD+, 96 well). Type of experiment: biochemical. The note with it: human TNKS2, BPS kit #80578, 96 well. The essentials:
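Commercial kit assay measuring TNKS2-catalysed incorporation of biotin-labelled NAD+ into a protein substrate, detected by streptavidin-HRP chemiluminescence. Run per manufacturer's protocol; IC50 is the concentration halving the normalised signal.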

Experiment [2] deals with wildtype Wnt signaling cascade. Kind of experiment: HEK293 TOP Assay (Super TopFlash luciferase reporter, Wnt-3a stimulated). The class given is cell-based. Conditions: Homo sapiens, HEK293, 16 h. The method, boiled down:
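Compounds (50 μM down to 15 nM, 3.16-fold steps, in CAFTY buffer pH 7.4, 2 mM Ca2+, 0.01% BSA) tested in parallel on TOP and FOP HEK293 reporter lines to define selective wildtype Wnt inhibition. Pathway driven by recombinant human Wnt-3a applied at 2500–5 ng/ml in two-fold dilutions.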
(In a reporter assay the amount or activity of a reporter protein is the signal.)

In experiment [3] the test system is HEK293 FOP control reporter cell line. Kind of experiment: HEK293 FOP Assay (FOP control vector luciferase reporter). Conditions: Homo sapiens. Type of experiment: cell-based. The essentials: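 Compound series 50 μM to 15 nM, 3.16-fold steps, were diluted in CAFTY buffer (pH 7.4, 2 mM Ca2+, 0.01% BSA) and tested alongside the TOP reporter line. Human Wnt-3a was added at 2500–5 ng/ml in two-fold steps. The control HEK293 line stably holds an FOP vector whose TCF elements are randomized and non-functional.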

The mark [4] stands for this setting: HEK293 TOP reporter cell line, Wnt-3a at EC50, 16 hours incubation, compound dilution series 50 μM to 15 nM.
Setting [5] is: HEK293 TOP reporter cells, Wnt3a at EC50, 16 hours, luciferase.
[6] abbreviates: HEK293 FOP control reporter cell line, 16 hours incubation, compound dilution series 50 μM to 15 nM.
Setting [7] is: HEK293 FOP control reporter cells, 16 hours, luciferase, dilution series from 50 μM.

As for `COC(=O)c1nc[nH]c1C(=O)Nc1ccc(NC(=O)c2ccc(F)cc2Cl)cc1` [Example 13, Methyl 5-({4-[(2-chloro-4-fluorobenzoyl)amino]phenyl}carbamoyl)-1H-imidazole-4-carboxylate], the concentration for half-maximal inhibition (IC50) in experiment [1] was 20 nM; in experiment [2] (setting [4]) it was 130 nM; in experiment [2] (setting [5]) it was 130 nM; in experiment [3] (setting [6]) it was 25 µM; in experiment [3] (setting [7]) it was 25 µM.

On to `CN(C)CCNC(=O)c1ncoc1C(=O)Nc1ccc(NC(=O)c2ccc(F)cc2Cl)cc1` [Example 31, N^5-{4-[(2-chloro-4-fluorobenzoyl)amino]phenyl}-N^4-[2-(dimethylamino)ethyl]-1,3-oxazole-4,5-dicarboxamide], for which the IC50 in experiment [1] is 130 nM; in experiment [2] (setting [4]), 1600 nM; in experiment [2] (setting [5]) it was 1600 nM; in experiment [3] (setting [7]), no less than 50 µM.

For `O=C(Nc1ccc(NC(=O)c2[nH]cnc2C(=O)NCCN2CCCCC2)cc1)c1ccc(F)cc1` [Example 33, N^4-{4-[(4-fluorobenzoyl)amino]phenyl}-N^5-[2-(piperidin-1-yl)ethyl]-1H-imidazole-4,5-dicarboxamide], the IC50 in experiment [1] is greater than 500 nM; in experiment [2] (setting [4]), 450 nM; in experiment [2] (setting [5]), 630 nM; in experiment [3] (setting [7]) it was no less than 50 µM.

Consider `CNC(=O)c1nc[nH]c1C(=O)Nc1ccc(NC(=O)c2c(C)cc(C)cc2C)cc1` [Example 35, N^5-{4-[(mesitylcarbonyl)amino]phenyl}-N^4-methyl-1H-imidazole-4,5-dicarboxamide], for which the IC50 in experiment [1] was greater than 500 nM; in experiment [2] (setting [4]), 760 nM; in experiment [2] (setting [5]), 760 nM; in experiment [3] (setting [7]), no less than 50 µM.

On to `CNC(=O)c1nc[nH]c1C(=O)Nc1ccc(NC(=O)c2ccccc2Br)cc1` [Example 37, N^5-{4-[(2-bromobenzoyl)amino]phenyl}-N^4-methyl-1H-imidazole-4,5-dicarboxamide], for which the half-maximal inhibitory concentration (IC50) was found to be 260 nM in experiment [1]; 330 nM in experiment [2] (setting [4]); 330 nM in experiment [2] (setting [5]); 20 µM in experiment [3] (setting [6]); 20 µM in experiment [3] (setting [7]).

`O=C(Nc1ccc(NC(=O)c2[nH]cnc2C(=O)NC2CC2)cc1)c1ccc(F)cc1Cl` [Example 45, N^5-{4-[(2-chloro-4-fluorobenzoyl)amino]phenyl}-N^4-cyclopropyl-1H-imidazole-4,5-dicarboxamide]: the IC50 in experiment [1] came out at 40 nM; in experiment [2] (setting [4]), 190 nM; in experiment [3] (setting [6]), 40 µM.

Take `O=C(Nc1ccc(NC(=O)c2[nH]cnc2C(=O)NCCC2CC2)cc1)c1cc(F)c(F)cc1Cl` [Example 49, N^5-{4-[(2-chloro-4,5-difluorobenzoyl)amino]phenyl}-N^4-(2-cyclopropylethyl)-1H-imidazole-4,5-dicarboxamide]: the IC50 in experiment [1] was greater than 500 nM; in experiment [2] (setting [4]), 350 nM; in experiment [3] (setting [6]) it was 17 µM.

Turning to `O=C(Nc1ccc(NC(=O)c2[nH]cnc2C(=O)NCCN2CCCCC2)cc1)c1cc(OC(F)(F)F)ccc1Br` [Example 63, N^5-(4-{[2-bromo-5-(trifluoromethoxy)benzoyl]amino}phenyl)-N^4-[2-(piperidin-1-yl)ethyl]-1H-imidazole-4,5-dicarboxamide], the IC50 amounted to 4 nM in experiment [1], 110 nM in experiment [2] (setting [4]) and 11 µM in experiment [3] (setting [6]).

For the compound `CNC(=O)c1[nH]c(C)nc1C(=O)Nc1ccc(NC(=O)c2ccc(F)cc2Cl)cc1` [Example 65, N^4-{4-[(2-chloro-4-fluorobenzoyl)amino]phenyl}-N^5,2-dimethyl-1H-imidazole-4,5-dicarboxamide], the half-inhibitory concentration (IC50) in experiment [1] was determined as 360 nM; in experiment [2] (setting [4]) it was 800 nM; in experiment [3] (setting [6]) it was 9.5 µM.

As for `O=C(Nc1ccc(NC(=O)c2[nH]cnc2C(=O)NCCN2CCCCC2)cc1F)c1ccc(F)cc1Cl` [Example 74, N^5-{4-[(2-chloro-4-fluorobenzoyl)amino]-3-fluorophenyl}-N^4-[2-(piperidin-1-yl)ethyl]-1H-imidazole-4,5-dicarboxamide], the IC50 in experiment [1] was less than 0.5 nM; in experiment [2] (setting [4]) it was 70 nM; in experiment [3] (setting [6]), 14 µM.
